This is an account of results in ChEMBL document CHEMBL1146784, “Human ACAT-1 and -2 inhibitory activities of saucerneol B, manassantin A and B isolated from Saururus chinensis” (Bioorg Med Chem Lett, 2004).

For one assay, the species on record is Mus musculus. As to the kind of experiment: Effect against body weight of mice when treated with 0.1% wt/wt diet of compound for 10 days; On day 0 =21.8 g. Format: functional.
Assay [1] has as its target T1, Sterol O-acyltransferase 2 (Homo sapiens, UniProt O75908).
T1 sequence (O75908 whole entry): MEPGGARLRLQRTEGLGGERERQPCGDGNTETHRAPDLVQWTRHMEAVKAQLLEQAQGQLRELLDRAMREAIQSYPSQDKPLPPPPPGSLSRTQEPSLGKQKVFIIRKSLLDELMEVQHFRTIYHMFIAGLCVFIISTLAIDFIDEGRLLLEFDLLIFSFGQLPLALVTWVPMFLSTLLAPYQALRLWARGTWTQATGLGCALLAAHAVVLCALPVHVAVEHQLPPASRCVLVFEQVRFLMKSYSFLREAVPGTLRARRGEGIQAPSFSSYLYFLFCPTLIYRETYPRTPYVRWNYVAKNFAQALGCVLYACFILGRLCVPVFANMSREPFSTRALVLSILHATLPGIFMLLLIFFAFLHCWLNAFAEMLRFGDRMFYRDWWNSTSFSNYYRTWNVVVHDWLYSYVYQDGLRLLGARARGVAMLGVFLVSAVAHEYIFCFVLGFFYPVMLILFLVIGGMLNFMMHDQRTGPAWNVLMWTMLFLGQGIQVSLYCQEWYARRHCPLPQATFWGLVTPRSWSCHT
As to the kind of experiment: (§1) Concentration required to inhibit Acyl coenzyme A:cholesterol acyltransferase 2.

Assay [2] concerns the target T2, Sterol O-acyltransferase 2 (Homo sapiens) (UniProt O75908).
T2 sequence (whole entry): T1 sequence (O75908 whole entry)
Described as §1. As to conditions: concentration not given here.

In the assay filed under Mus musculus, `CC(C)(Sc1cc(C(C)(C)C)c(O)c(C(C)(C)C)c1)Sc1cc(C(C)(C)C)c(O)c(C(C)(C)C)c1` [PROBUCOL] registered a Body weight of 23.7 g.
For orientation: IC50 means the concentration that gives 50% inhibition. Read a high IC50 as lower potency. In assay [1], `COc1ccc(C(O)C(C)Oc2ccc([C@H]3O[C@H](c4ccc(OC(C)C(O)c5ccc(OC)c(OC)c5)c(OC)c4)[C@H](C)[C@H]3C)cc2OC)cc1OC` (stereo partly drawn) registered an IC50 of 39 µM. In other words, the double-digit micromolar range.
One may read the inhibition as the share of the control response that was lost under treatment. Low readings indicate a weak effect, high ones a strong effect. `COc1ccc(C(O)C(C)Oc2ccc([C@H]3O[C@H](c4ccc(OC(C)C(O)c5ccc6c(c5)OCO6)c(OC)c4)[C@H](C)[C@H]3C)cc2OC)cc1OC` (stereo partly drawn) yielded an inhibition in assay [2] of 32%.
